This note sets out measurements from patent US20260216355A1, “ANTIBODY-DRUG CONJUGATE FROM N-OXYCYCLOALKYL SUBSTITUTED CAMPTOTHECIN DERIVATIVE” (priority 2022, published 2026).

For orientation: IC50 means the point on the concentration scale where inhibition reaches its midpoint. Low readings indicate greater potency, high ones weaker potency.

A value given as a limit tells only on which side of the number the result lay.

Test [1] concerns breast cancer cells MDA-MB-231. The experiment in a line: In vitro inhibitory activity of ADC against tumor cell growth (CCK-8), MDA-MB-231. The format is cell-based, Human. To be noted: MDA-MB-231 cells, 6 days incubation. The source says: (§1) Method for in vitro inhibitory activity assay of ADC: Human esophageal cancer cells OE-33, lung cancer cells NCI-H1975, and breast cancer cells MDA-MB-231 used for activity assays were respectively cultured in RPMI1640 (Cellmax), RPMI1640 (Cellmax), and DMEM (Cellmax) media containing 10% fetal bovine serum (FBS, Cellmax) to the exponential growth phase. After trypsinization, the cells were centrifuged, and the supernatant was discarded. The cells were resuspended with media and diluted to 3×10^4 cells/mL, 0.5×10^4 cells/mL and 1.5×10^4 cells/mL respectively. Then, 100 μL of each cell suspension was added to a 96-well cell culture plate, and the plate was returned to an incubator at 37° C. with 5% CO2 for overnight culture. The next day, the ADC to be tested was diluted to 2000 nM, 400 nM, 80 nM, 16 nM, 3.2 nM, 0.64 nM, 0.128 nM, and 0.026 nM using culture medium. The diluted ADC was added to a 96-well cell culture plate at 100 μL per well, with 3 replicates set for each concentration. For the negative control without ADC and the blank control, 100 μL of culture medium was added to each well. After the sample addition was finished, the plate was returned to the incubator at 37° C. with 5% CO2 for further incubation for 6 days. Upon completion of incubation, the cell culture plate was removed, and the medium in the plate was aspirated using a pipette. 100 μL of medium containing 10% CCK-8 was added to each well, followed by incubation at 37° C. for 3 h. After incubation, the plate was removed, protected from light, placed in a microplate reader, and the absorbance was measured at a test wavelength of 450 nm with a reference wavelength of 630 nm. Based on the absorbance values, the IC50 (Table 1) was calculated using four-parameter regression in GraphPad. The corresponding ADC drug containing Dxd was used as a positive control drug, which has the following structure: […]

Test [2] concerns Human esophageal cancer cells OE-33. As to the kind of experiment: In vitro inhibitory activity of ADC against tumor cell growth (CCK-8), OE-33. It counts as cell-based. To be noted: OE-33 cells, 6 days incubation.
Source text: as §1

Test [3] relates to lung cancer cells NCI-H1975. As to the kind of experiment: In vitro inhibitory activity of ADC against tumor cell growth (CCK-8), NCI-H1975. The format is cell-based, Human. To be noted: 6 days incubation.
Source text: as §1

Regarding “7-(N-(IP140B-Ac-PEG2-Gly-Lys-PABC), N-((S)-tetrahydrofuran-3-yl)amino)ethyl-10,11-methylenedioxycamptothecin [ADC 16]”, the IC50 in test [1], in test [2] and in test [3] was 50 to 500 nM in each case.

On to “7-(N-(HS627-mPEG2-Gly-Lys-PABC), N-(tetrahydropyran-4-yl)amino)ethyl-10,11-methylenedioxycamptothecin [ADC 3]”, for which the IC50 in test [1], in test [2] and in test [3] was 5 to 50 nM in each case.

For the substance “20-O-(IP140B-Ac-PEG4-daP-NHNHC)-7-(N-(tetrahydropyran-4-yl)amino)ethyl-10,11-methylenedioxycamptothecin [ADC 20]”, the IC50 in test [1], in test [2] and in test [3] was less than 5 nM each time.

For the substance “7-(N-(IP140B-Ac-PEG2-Gly-Lys-PABC), N-((R)-tetrahydrofuran-3-yl)amino)ethyl-10,11-methylenedioxycamptothecin [ADC 14]”, the IC50 in test [1], in test [2] and in test [3] was 5 to 50 nM in each case.

With “7-(N-(HS627-mc-Val-Cit-PABC), N-(tetrahydropyran-4-yl)amino)ethyl-10,11-methylenedioxycamptothecin [ADC 1]”, the IC50 in test [1] was in the range of 50 to 500 nM; in test [2] it was 5 to 50 nM; in test [3], 5 to 50 nM.

For “20-O-(IP140B-AcPEG2-Gly-Val-Ala-Gly-NHNHC)-7-(N-(tetrahydropyran-4-yl)amino)ethyl-10,11-methylenedioxycamptothecin [ADC 18]”, the IC50 in test [1], in test [2] and in test [3] was less than 5 nM each time.

As to “7-(N-(IP140B-Qx-PEG2-Gly-Lys-PABC), N-((R)-tetrahydrofuran-3-yl)amino)ethyl-10,11-methylenedioxycamptothecin [ADC 12]”, the figures for the half-inhibitory concentration (IC50) in test [1], in test [2] and in test [3] were 5 to 50 nM, 5 to 50 nM and less than 5 nM, respectively.

As for “7-(N-(IP140B-mPEG2-Gly-Lys-PABC), N-(tetrahydropyran-4-yl)amino)ethyl-10,11-methylenedioxycamptothecin [ADC 4]”, the IC50 in test [1], in test [2] and in test [3] was 5 to 50 nM throughout.

Turning to “7-(N-(IP140B-Qx-PEG2-Gly-Lys-PABC), N-(tetrahydropyran-4-yl)amino)ethyl-10,11-methylenedioxycamptothecin [ADC 10]”, the half-maximal inhibitory concentration (IC50) in test [1] was less than 5 nM; in test [2], 5 to 50 nM; in test [3] it was less than 5 nM.

For the substance “7-(N-(HS627-AcPEG4-Gly-Lys-PABC), N-(tetrahydropyran-4-yl)amino)ethyl-10,11-methylenedioxycamptothecin [ADC 7]”, the IC50 was 50 to 500 nM in test [1], greater than 250 nM in test [2] and 50 to 500 nM in test [3].

Regarding “7-(N-(IP140B-mc-Val-Cit-PABC), N-(tetrahydropyran-4-yl)amino)ethyl-10,11-methylenedioxycamptothecin [ADC 2]”, the IC50 is 5 to 50 nM in test [1], 5 to 50 nM in test [2] and less than 5 nM in test [3].

Consider “7-(N-(HS627-AcPEG2-Gly-Lys-PABC), N-(tetrahydropyran-4-yl)amino)ethyl-10,11-methylenedioxycamptothecin [ADC 5]”, for which the IC50 in test [1] was 50 to 500 nM; in test [2], greater than 250 nM; in test [3], 50 to 500 nM.

Take “7-(N-(HS627-Ac-PEG2-Gly-Lys-PABC), N-((R)-tetrahydrofuran-3-yl)amino)ethyl-10,11-methylenedioxycamptothecin [ADC 13]”: the IC50 in test [1], in test [2] and in test [3] was 50 to 500 nM throughout.

Regarding “7-(N-(IP140B-AcPEG4-Gly-Lys-PABC), N-(tetrahydropyran-4-yl)amino)ethyl-10,11-methylenedioxycamptothecin [ADC 8]”, the IC50 in test [1], in test [2] and in test [3] was 50 to 500 nM each time.

As for “7-(N-(IP140B-AcPEG2-Gly-Lys-PABC), N-(tetrahydropyran-4-yl)amino)ethyl-10,11-methylenedioxycamptothecin [ADC 6]”, the IC50 in test [1] fell in the range of 50 to 500 nM; in test [2], 5 to 50 nM; in test [3], 5 to 50 nM.
